The record followed here is patent US20210317102A1, “INHIBITORS OF INTEGRATED STRESS RESPONSE PATHWAY” (Praxis Biotech LLC, priority 2019, published 2021).

Assay [1] relates to ATF4 expression, HEK293T cells carrying the ATF4 luciferase reporter. The experiment in a line: ATF4 expression inhibition assay (ATF4 luciferase reporter). Format: cell-based. The note with it: Homo sapiens, HEK-293T, 100 nM thapsigargin, 3 hours. In a few lines: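 Stable HEK293T line expressing firefly luciferase behind the human full-length ATF4 5′UTR; cells stressed with 100 nM thapsigargin alongside compound (1 nM–10 μM) for 3 h at 37 °C. Luminescence normalized to Tg alone (0% inhibition) and untreated cells (100% inhibition) to give % ATF4 inhibition.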

The test system of assay [2] is Chinese hamster ovary (CHO) cells. Briefly: Protein synthesis assay (puromycin incorporation, western blot). The note with it: 2 hours, media alone = 100%. In kind it is cell-based. In a few lines: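 CHO cells treated 2 h with 1 μM compound alone, or with 300 nM thapsigargin plus 1 μM compound, then pulsed 30 min with 10 μg/ml puromycin. Puromycin incorporation read by anti-puromycin western blot with densitometry. Unstressed values normalized to media alone (100%); stressed recovery normalized to media alone (100%) and Tg alone (0%).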

In another assay the test system is male Balb/c mice. Briefly: Fasting-induced muscle atrophy. Format: in vivo. The note with it: fasted mice, 10 mg/kg oral, compared to vehicle-treated fasted mice. As to the method: Wild type eight-weeks-old male Balb/c mice obtained from the vivarium Fundación Ciencia & Vida Chile (Santiago, Chile) are used. Mice are housed in independent plastic cages in a room maintained at 25° C. with a 12-h:12-h light:dark cycle.
Twenty-four hours before and during the 2 days of fasted procedures, animals receive oral administration via feeding tubes (15 gauge) of vehicle (50% Polyethylene glycol 400 (Sigma-Aldrich P3265) in distilled water or 10 mg/kg of test compound formulated in vehicle solution.
After 2 days of fasting the animals are sacrificed and muscles are removed from both hindlimbs. Mice with feed and water ad libitum are used as control. […]
Upon collection, muscles are immediately frozen in liquid nitrogen and then stored at −80° C. […] Protein concentration in supernatants is determined using BCA Protein Assay Kit (Pierce). […]
Puromycin (12D10) (Merck Millipore), MuRF-1 (Santa Cruz Biotechnology) and 3-actin (Sigma-Aldrich) antibodies are used as primary antibodies. […] Quantification of protein bands is done by densitometry using ImageJ software.
Expression of the muscle atrophy marker MuRF-1 in quadriceps from fed or fasted mice treated with vehicle or compound 11 is shown in FIG. 1D. The levels were normalized to β-actin expression and fold change was calculated as the level relative to MuRF-1 levels from control mice (Fed) which correspond to 1.

For `O=C(COc1ccc(Cl)c(F)c1)N[C@H]1CC[C@H](CNC(=O)c2cc3cc(Cl)ccc3o2)CC1` [Compound 11, trans-5-chloro-N-((4-(2-(4-chloro-3-fluorophenoxy)acetamido)cyclohexyl)methyl)benzofuran-2-carboxamide], the concentration for half-maximal inhibition (IC50) in assay [1] was 0.82 nM. Further, the activity at 1 µM in assay [2] (Cricetulus griseus, unstressed CHO cells (without Tg), 1 μM test compound, read-out: % Protein synthesis relative to untreated (1 μM test compound)) worked out at 187%. Besides, the “% Recovery of protein synthesis (1 μM test compound)” value in assay [2] (stressed CHO cells, 300 nM Tg plus 1 μM test compound, Tg alone = 0%) is reported as 298.9%. In addition, the “Expression of the muscle atrophy marker MuRF-1 in quadriceps” value in the assay with male Balb/c mice is “reduction of MuRF-1 expression”.
